# Experiments:
# Format in all cases: functional, Cricetulus griseus
# [1] = tested on: Cricetinae gen. sp.; test: Compound was tested for percent reduction of liver cholesterol esters absorption in cholesterol fed hamster model at an oral dose of 3 mg/kg/day
# [2] = tested on: Cricetinae gen. sp.; test: Compound was tested for percent reduction of serum cholesterol absorption in cholesterol fed hamster model at an oral dose of 3 mg/kg/day
# [3] = tested on: Cricetinae gen. sp.; test: Compound was tested for percent reduction of serum cholesterol absorption in cholesterol fed hamster model at an oral dose of 10 mg/kg/day
# [4] = tested on: Cricetinae gen. sp.; test: Compound was tested for percent reduction of liver cholesterol esters absorption in cholesterol fed hamster model at an oral dose of 10 mg/kg/day
# [5] = tested on: Cricetinae gen. sp.; test: Dose required to inhibit cholesterol absorption in cholesterol fed hamster model
# [6] = tested on: Cricetinae gen. sp.; test: Compound was tested for percent reduction of liver cholesterol esters absorption in cholesterol fed hamster model at an oral dose of 50 mg/kg/day
SMILES,Reduction [1],Reduction [2],Reduction [3],Reduction [4],Reduction [6],other results
COC(=O)Cc1ccc([C@@H]2[C@@H](CCCc3ccccc3)C(=O)N2c2ccc(F)cc2)cc1,-61%,-16%,–,–,–,–
CCN(CC)C(=O)CCc1ccc([C@@H]2[C@@H](CCCc3ccccc3)C(=O)N2c2ccc(F)cc2)cc1,–,–,0%,-19%,–,–
COC(=O)Cc1ccc([C@@H]2[C@@H](CCCc3ccccc3)C(=O)N2c2ccc(OC)cc2)cc1,-89%,-26%,–,–,–,ED50 [5]: 0.95 mg/kg/day
COC(=O)C(C)(C)Oc1ccc([C@@H]2[C@@H](CCCc3ccccc3)C(=O)N2c2ccc(OC)cc2)cc1,–,–,–,–,-80%,–
O=C(O)CCc1ccc([C@@H]2[C@@H](CCCc3ccccc3)C(=O)N2c2ccc(F)cc2)cc1,–,–,-32%,-63%,–,–
COC(=O)/C=C/c1ccc([C@@H]2[C@@H](CCCc3ccccc3)C(=O)N2c2ccc(OC)cc2)cc1,–,–,–,–,-90%,–
COC(=O)CCc1ccc([C@@H]2[C@@H](CCCc3ccccc3)C(=O)N2c2ccc(F)cc2)cc1,–,–,-26%,-72%,–,–
COC(=O)CCc1ccc([C@@H]2[C@@H](CCCc3ccccc3)C(=O)N2c2ccc(OC)cc2)cc1,-76%,-20%,–,–,–,ED50 [5]: 0.85 mg/kg/day
CCN(CC)C(=O)Cc1ccc([C@@H]2[C@@H](CCCc3ccccc3)C(=O)N2c2ccc(F)cc2)cc1,–,–,0%,-19%,–,–
O=C(O)Cc1ccc([C@@H]2[C@@H](CCCc3ccccc3)C(=O)N2c2ccc(F)cc2)cc1,–,–,-44%,-97%,–,ED50 [5]: 1.1 mg/kg/day
COC(=O)c1ccc([C@@H]2[C@@H](CCCc3ccccc3)C(=O)N2c2ccc(F)cc2)cc1,-16%,0%,–,–,–,–
O=C(O)c1ccc([C@@H]2[C@@H](CCCc3ccccc3)C(=O)N2c2ccc(F)cc2)cc1,-37%,0%,–,–,–,–
COc1ccc(N2C(=O)[C@H](CCCc3ccccc3)[C@H]2c2ccc(OC(C)(C)C(=O)O)cc2)cc1 (racemic),–,–,–,–,-75%,–
COC(=O)CCc1ccc([C@@H]2[C@@H](CCCc3ccccc3)C(=O)N2c2ccc(OC)cc2)cc1 (racemic),–,–,–,–,-93%,–
COc1ccc([C@@H]2[C@@H](CCCc3ccccc3)C(=O)N2c2ccc(OC)cc2)cc1 (racemic) [SCH-48461],–,–,–,–,-78%,–
COc1ccc([C@@H]2[C@@H](CCCc3ccccc3)C(=O)N2c2ccc(OC)cc2)cc1 [SCH-48461],–,–,-43%,-93%,–,ED50 [5]: 2 mg/kg/day

# Source: ChEMBL document CHEMBL1130741, “Carboxy-substituted 2-azetidinones as cholesterol absorption inhibitors” (1998)
